{
  "source": "patent US11147790B2",
  "about": "“Treatment of cutaneous disorders” (Verrica Pharmaceuticals Inc., priority 2017, dated 2021)",
  "experiment": "Phase II clinical trial, systemic exposure evaluation (plasma concentration of cantharidin) after topical application to Molluscum contagiosum lesions",
  "type": "in vivo, human",
  "protocol": "This example describes pharmacokinetic results from a Phase II clinical trial for the treatment of skin lesion resulting from Molluscum contagiosum. Patients received administrations of the cantharidin composition in Table 9 to Molluscum contagiosum lesions every 21 days for a maximum of 4 sessions or until complete clearance. Blood samples for systemic exposure evaluation were collected on Day 1, prior to the drug application, and 2 (+30 minutes), 6 (+1 hour) and 24 (±3 hours) hours post-application. The average age of the subjects was 7±3.5 years. The average body weight of the subjects was 58±34.6 lb. The average number of lesions per subject was 43.7±24.2.\nThe plasma concentration of cantharidin for all subjects was less than 3.3 ng/ml at all times sampled.",
  "note": "Values joined by “and” are separate entries in the source; they are usually repeats but may differ in a detail not shown here. Equal entries are not always repeated.",
  "data": [
    {"smiles": "C[C@@]12C(=O)OC(=O)[C@]1(C)[C@H]1CC[C@@H]2O1", "note": "[cantharidin]", "values": [
      {"measurement": "plasma concentration of cantharidin for all subjects at all times sampled", "setting": "all seventeen subjects, 2, 6 and 24 hours post-application, composition of Table 9, topical", "result": "less than 3.3 ng/ml"},
      {"measurement": "Exposure", "setting": "plasma cantharidin per individual subject, cantharidin composition of Table 9 applied topically to Molluscum contagiosum lesions, blood collected Day 1 at 2, 6 and 24 hours post-application, lower limit of quantification 2.5 ng/ml", "result": "<2.5 ng/ml (16×) and 3.3 ng/ml"},
      {"measurement": "plasma concentration of cantharidin below the lower limit of quantification", "setting": "subjects as young as 2 years old, having over 100 lesions, having genital lesions, with as many as 2.26 lesions per lb, LLOQ 2.5 ng/ml, only one of seventeen subjects above LLOQ", "result": "< 2.5", "unit": "ng/mL"}
    ]}
  ]
}
